The record followed here is patent US7915276B2, “Berberrubine derivatives having antifungal activities” (priority 2006, dated 2011).

Experiment [1] deals with T1, chitin synthase 1 of Candida albicans chs2 Δ chs 3 Δ (Candida albicans, UniProt P23316).
T1 construct: Crude enzyme was prepared using the Candida albicans chs2 Δ chs 3 Δ mutant; endogenous in cells; host or cells: Candida albicans chs2Δ/chs2Δ chs3Δ/chs3Δ mutant; 130,000 x g membrane pellet
Briefly: In vitro enzyme assay for chitin synthase 1 of Candida albicans (enzyme 1). In kind it is biochemical. Particulars: relative to polyoxin D (50% inhibitory activity = value 5). The essentials:
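Crude membrane enzyme from the C. albicans chs2Δ chs3Δ strain was trypsin-activated for 15 min at 30 °C. Reaction: 32 mM Tris-HCl pH 7.5, 2 mM cobalt acetate, 1.1 mM UDP-[14C]GlcNAc, 90 min at 30 °C; TCA-insoluble radioactivity counted. Scored 1–8 by relative polyoxin D concentration (5 = equal).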

Experiment [2] deals with Aspergillus fumigatus ATCC 16424. The experiment can be described thus: In vitro antifungal activity (MIC), NCCLS method. The experiment is classed as cell-based. Conditions: 48 hours. The gist of the method: (§1)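 Broth microdilution per NCCLS: two-fold serial dilutions of test compound inoculated with fungal suspension at a final 5×10^2 to 2.5×10^3 cell/mL. Strains other than Cryptococcus neoformans were incubated 48 hours before MIC reading.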

Experiment [3] deals with Candida tropicalis ATCC 13803. Briefly: In vitro antifungal activity (MIC), NCCLS method. Conditions: 48 hours. The experiment is classed as cell-based. The essentials: (§2)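 MIC read as the lowest concentration inhibiting growth after 48 hours of culture. Setup follows NCCLS: compound diluted two-fold and inoculated at 5×10^2 to 2.5×10^3 cell/mL final.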
Experiment [4] has as its system Candida albicans A207 (clinical isolate). The experiment can be described thus: In vitro antifungal activity (MIC), NCCLS method. The experiment is classed as cell-based. Conditions: 48 hours. The gist of the method:
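Broth MIC by NCCLS two-fold dilution, final inoculum 5×10^2 to 2.5×10^3 cell/mL. Candida and Mucor strains incubated 48 hours.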

Experiment [5] relates to Mucor ramosissimus ATCC 90286. Briefly: In vitro antifungal activity (MIC), NCCLS method. The experiment is classed as cell-based. Particulars: 48 hours. The gist of the method:
as §2

The subject of experiment [6] is Candida parapsilosis ATCC 34136. The experiment can be described thus: In vitro antifungal activity (MIC), NCCLS method. The experiment is classed as cell-based. Particulars: Candida parapsilosis ATCC 34136; 48 hours. The gist of the method:
as §2

In experiment [7] the test system is Candida glabrata ATCC 48435. The experiment can be described thus: In vitro antifungal activity (MIC), NCCLS method. In kind it is cell-based. Particulars: Candida glabrata ATCC 48435; 48 hours. The essentials: as §2
The subject of experiment [8] is Cryptococcus neoformans ATCC 36556. Briefly: In vitro antifungal activity (MIC), NCCLS method. The experiment is classed as cell-based. Particulars: RPMI 1640 medium, 72 hours. The essentials: as §1
Experiment [9] relates to Aspergillus terreus ATCC 46941. Briefly: In vitro antifungal activity (MIC), NCCLS method. In kind it is cell-based. Conditions: 48 hours. The gist of the method: as §1
For experiment [10], the system named is Candida lusitaniae ATCC 42720. The experiment can be described thus: In vitro antifungal activity (MIC), NCCLS method. The experiment is classed as cell-based. Conditions: 48 hours. The essentials: as §2
The test system of experiment [11] is Candida albicans ATCC 10231. The experiment can be described thus: In vitro antifungal activity (MIC), NCCLS method. The experiment is classed as cell-based. Particulars: 48 hours. The gist of the method:
as §2

For a further experiment, the system named is Candida krusei ATCC 6258. The experiment can be described thus: In vitro antifungal activity (MIC), NCCLS method. In kind it is cell-based. Particulars: 48 hours. The gist of the method: as §2
The test system of experiment [12] is Aspergillus flavus ATCC 64025. The experiment can be described thus: In vitro antifungal activity (MIC), NCCLS method. The experiment is classed as cell-based. Conditions: 48 hours. The essentials:
as §1

Experiment [13] addresses T2, chitin synthase 2 of Saccharomyces cerevisiae ECY38-38A(pAS6) (Saccharomyces cerevisiae, UniProt P14180).
T2 construct: made in house; host or cells: Saccharomyces cerevisiae ECY38-38A (chs1-23 chs2::LEU2 cal1/csd2) carrying plasmid pAS6, grown in galactose medium; 130,000 x g membrane pellet
Briefly: In vitro enzyme assay for chitin synthase 2 of Saccharomyces cerevisiae (enzyme 2). In kind it is biochemical. Conditions: relative to polyoxin D (50% inhibitory activity = value 5). The essentials:
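Crude membrane chitin synthase 2 came from S. cerevisiae ECY38-38A(pAS6), expressing only CHS2, and was trypsin-activated (15 min, 30 °C) then trypsin-inhibited. The reaction ran in 32 mM Tris-HCl pH 7.5, 2 mM cobalt acetate, 1.1 mM UDP-[14C]-GlcNAc, 90 min at 30 °C. TCA-precipitated product was counted by scintillation; scores 1–8 reflect concentration relative to polyoxin D's 50% inhibition (score 5).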

T2 sequence (P14180 whole entry): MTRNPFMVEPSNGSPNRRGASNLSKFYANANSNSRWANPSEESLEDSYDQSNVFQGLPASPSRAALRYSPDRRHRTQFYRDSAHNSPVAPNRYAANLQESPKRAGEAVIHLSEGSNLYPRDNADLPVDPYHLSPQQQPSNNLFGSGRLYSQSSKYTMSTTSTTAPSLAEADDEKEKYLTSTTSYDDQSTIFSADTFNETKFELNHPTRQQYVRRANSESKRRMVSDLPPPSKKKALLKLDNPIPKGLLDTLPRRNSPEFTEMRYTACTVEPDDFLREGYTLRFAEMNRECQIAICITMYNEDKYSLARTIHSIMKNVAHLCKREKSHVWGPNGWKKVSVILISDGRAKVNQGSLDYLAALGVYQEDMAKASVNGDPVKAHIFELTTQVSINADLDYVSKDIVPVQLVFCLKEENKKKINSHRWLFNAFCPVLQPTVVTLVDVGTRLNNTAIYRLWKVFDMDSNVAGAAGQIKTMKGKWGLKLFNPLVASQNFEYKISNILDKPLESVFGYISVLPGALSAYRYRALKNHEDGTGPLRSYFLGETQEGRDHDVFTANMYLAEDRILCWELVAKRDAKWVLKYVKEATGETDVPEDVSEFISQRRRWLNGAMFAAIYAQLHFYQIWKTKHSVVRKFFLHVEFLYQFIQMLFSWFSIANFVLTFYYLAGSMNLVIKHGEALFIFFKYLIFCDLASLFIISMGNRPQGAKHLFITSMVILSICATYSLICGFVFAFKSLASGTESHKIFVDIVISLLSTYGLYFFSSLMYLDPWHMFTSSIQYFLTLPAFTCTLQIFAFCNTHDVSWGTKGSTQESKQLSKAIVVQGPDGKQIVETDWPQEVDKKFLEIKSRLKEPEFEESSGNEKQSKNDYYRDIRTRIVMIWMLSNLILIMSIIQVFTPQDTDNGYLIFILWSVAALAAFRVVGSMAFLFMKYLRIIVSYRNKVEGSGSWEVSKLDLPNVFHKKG
T1 sequence (P23316 whole entry, stated change not applied): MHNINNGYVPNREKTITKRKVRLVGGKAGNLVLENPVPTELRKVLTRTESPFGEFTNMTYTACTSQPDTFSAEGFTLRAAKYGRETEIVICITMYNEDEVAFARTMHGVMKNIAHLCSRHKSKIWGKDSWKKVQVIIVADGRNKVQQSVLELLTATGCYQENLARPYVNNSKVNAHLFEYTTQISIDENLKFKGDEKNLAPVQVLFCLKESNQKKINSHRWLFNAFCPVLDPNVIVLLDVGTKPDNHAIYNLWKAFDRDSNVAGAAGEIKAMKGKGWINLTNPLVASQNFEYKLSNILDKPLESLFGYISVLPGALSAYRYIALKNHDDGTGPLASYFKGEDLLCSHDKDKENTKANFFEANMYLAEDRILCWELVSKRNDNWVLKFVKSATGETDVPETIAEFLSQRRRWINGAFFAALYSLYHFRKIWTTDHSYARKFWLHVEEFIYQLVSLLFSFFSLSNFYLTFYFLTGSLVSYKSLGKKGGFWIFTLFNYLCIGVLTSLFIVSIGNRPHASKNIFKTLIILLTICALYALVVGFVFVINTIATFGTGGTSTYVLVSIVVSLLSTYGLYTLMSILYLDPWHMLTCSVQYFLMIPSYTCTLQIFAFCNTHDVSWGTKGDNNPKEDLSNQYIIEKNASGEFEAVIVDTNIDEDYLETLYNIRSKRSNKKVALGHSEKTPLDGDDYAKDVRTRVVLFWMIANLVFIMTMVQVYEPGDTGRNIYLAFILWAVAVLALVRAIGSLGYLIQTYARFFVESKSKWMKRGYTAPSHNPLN

Turning to “13-(4-tert-Butylbenzyl)-9-O-allylberberrubine iodide [Compound No. 13]”, the “Relative activity Enzyme 1” value in experiment [1] is 2 (Compounds having the inhibitory activity at 2-fold, 4-fold, 8-fold and 16-fold higher concentrations than that of polyoxin D were given the values of 4, 3, 2 and 1, respectively). Also, the “MIC (minimum inhibitory concentration)” value stood at 8 µg/mL in experiment [2]; 1 µg/mL in experiment [3]; 1 µg/mL in experiment [4]; 4 µg/mL in experiment [5]; 4 µg/mL in experiment [6]; 8 µg/mL in experiment [7]. For the same substance, the “MIC (minimum inhibitory concentration)” value in experiment [8] amounted to 2 µg/mL; in experiment [9], 8 µg/mL; in experiment [10], 2 µg/mL; in experiment [11], 1 µg/mL; in the experiment with Candida krusei ATCC 6258 it was 2 µg/mL; in experiment [12], 8 µg/mL. Also, in experiment [13], the “Relative activity Enzyme 2” value was 5 (A compound having the same inhibitory activity as that of polyoxin D at the same concentration was given the value 5).
With “13-(4-tert-Butylbenzyl)-9-O-crotylberberrubine bromide [Compound No. 14]”, the “Relative activity Enzyme 1” value in experiment [1] is 2 (Compounds having the inhibitory activity at 2-fold, 4-fold, 8-fold and 16-fold higher concentrations than that of polyoxin D were given the values of 4, 3, 2 and 1, respectively). The “MIC (minimum inhibitory concentration)” value in [2] is 2 µg/mL; in [3] it was 0.5 µg/mL; in experiment [4] it was 0.5 µg/mL; in [5], 4 µg/mL; in experiment [6] it was 4 µg/mL; in experiment [7], 4 µg/mL. For the same substance, the “MIC (minimum inhibitory concentration)” value is 1 µg/mL in [8]; 4 µg/mL in [9]; 1 µg/mL in [10]; 0.5 µg/mL in experiment [11]; 1 µg/mL in the experiment with Candida krusei ATCC 6258; 8 µg/mL in experiment [12]. Further, the “Relative activity Enzyme 2” value in [13] is recorded as 5 (A compound having the same inhibitory activity as that of polyoxin D at the same concentration was given the value 5).
For “13-(4-tert-Butylbenzyl)-9-O-crotylberberrubine chloride [Compound No. 46]”, in [1], the “Relative activity Enzyme 1” value was 2 (Compounds having the inhibitory activity at 2-fold, 4-fold, 8-fold and 16-fold higher concentrations than that of polyoxin D were given the values of 4, 3, 2 and 1, respectively). Also, the “MIC (minimum inhibitory concentration)” value in [2] was 2 µg/mL; in experiment [3], 0.5 µg/mL; in [4], 0.5 µg/mL; in experiment [5], 4 µg/mL; in experiment [6], 4 µg/mL; in [7], 4 µg/mL. Further, the “MIC (minimum inhibitory concentration)” value in [8] is 1 µg/mL; in experiment [9], 4 µg/mL; in [10], 1 µg/mL; in experiment [11], 0.5 µg/mL; against Candida krusei ATCC 6258, 1 µg/mL; in experiment [12], 8 µg/mL. Moreover, the “Relative activity Enzyme 2” value in experiment [13] is 6 (compounds having the inhibitory activity at ½, ¼ and ⅛ lower concentrations than that of polyoxin D were given the values of 6, 7 and 8, respectively).
Take “13-(4-tert-Butylbenzyl)-9-O-hexylberberrubine chloride [Compound No. 41]”: the “Relative activity Enzyme 1” value in [1] is 4 (Compounds having the inhibitory activity at 2-fold, 4-fold, 8-fold and 16-fold higher concentrations than that of polyoxin D were given the values of 4, 3, 2 and 1, respectively). In addition, the “MIC (minimum inhibitory concentration)” value in experiment [2] amounted to 2 µg/mL; in experiment [3], 0.125 µg/mL; in experiment [4], 0.25 µg/mL; in experiment [5] it was 4 µg/mL; in experiment [6], 2 µg/mL; in experiment [7], 2 µg/mL. Moreover, the “MIC (minimum inhibitory concentration)” value in [8] was found to be 0.5 µg/mL; in [9], 8 µg/mL; in experiment [10], 0.5 µg/mL; in experiment [11], 0.25 µg/mL; against Candida krusei ATCC 6258, 1 µg/mL; in experiment [12], 8 µg/mL. In addition, the “Relative activity Enzyme 2” value in experiment [13] was 6 (compounds having the inhibitory activity at ½, ¼ and ⅛ lower concentrations than that of polyoxin D were given the values of 6, 7 and 8, respectively).
Consider “13-(4-tert-Butylbenzyl)-9-O-hexylberberrubine iodide [Compound No. 9]”, for which, in experiment [1], the “Relative activity Enzyme 1” value is 3 (Compounds having the inhibitory activity at 2-fold, 4-fold, 8-fold and 16-fold higher concentrations than that of polyoxin D were given the values of 4, 3, 2 and 1, respectively). Also, the “MIC (minimum inhibitory concentration)” value in [2] turned out to be 2 µg/mL; in [3], 0.125 µg/mL; in [4], 0.25 µg/mL; in experiment [5], 4 µg/mL; in [6], 2 µg/mL; in experiment [7], 2 µg/mL. Besides, the “MIC (minimum inhibitory concentration)” value in experiment [8] turned out to be 1 µg/mL; in experiment [9] it was 8 µg/mL; in experiment [10] it was 1 µg/mL; in [11], 0.25 µg/mL; in the experiment on Candida krusei ATCC 6258, 1 µg/mL; in [12], 8 µg/mL. For the same substance, the “Relative activity Enzyme 2” value in [13] is 6 (compounds having the inhibitory activity at ½, ¼ and ⅛ lower concentrations than that of polyoxin D were given the values of 6, 7 and 8, respectively).
In the case of “13-(4-tert-Butylbenzyl)-9-O-octylberberrubine chloride [Compound No. 42]”, the “Relative activity Enzyme 1” value in experiment [1] is 3 (Compounds having the inhibitory activity at 2-fold, 4-fold, 8-fold and 16-fold higher concentrations than that of polyoxin D were given the values of 4, 3, 2 and 1, respectively). The “MIC (minimum inhibitory concentration)” value in [2] is 2 µg/mL; in [3], 0.125 µg/mL; in experiment [4], 0.25 µg/mL; in [5] it was 2 µg/mL; in experiment [6], 1 µg/mL; in [7], 1 µg/mL. Moreover, the “MIC (minimum inhibitory concentration)” value turned out to be 0.5 µg/mL in experiment [8]; 4 µg/mL in experiment [9]; 0.5 µg/mL in experiment [10]; 0.25 µg/mL in experiment [11]; 1 µg/mL against Candida krusei ATCC 6258; 4 µg/mL in experiment [12]. Also, the “Relative activity Enzyme 2” value in experiment [13] is 6 (compounds having the inhibitory activity at ½, ¼ and ⅛ lower concentrations than that of polyoxin D were given the values of 6, 7 and 8, respectively).
